Data: patent US20230358737A1, “CONTINUOUSLY CHEMICALLY ENHANCED APTAMER SENSORS” (University of Cincinnati, priority 2020, published 2023)
Converted amounts (≈) assume the structure as drawn.

What was measured:
[1] = cited from earlier work; for Viscosity at 25° C.: Table 3
[2] = cited from earlier work
[3] = cited from earlier work; for LogK (octanol over water): Table 3, ratio of concentration of the oil in octanol and water at equilibrium
[4] = cited from earlier work; remark: listed apart in the source
[5] = equivalent diffusion distance through oil-membrane compared to water (calculation); type: physicochemical
From the text: For this reason, the present inventors chose to use 11 μm thick polycarbonate track-etch membranes instead of thicker hydrophobic membranes such as conventional porous Teflon films (z=10s to 100s of μm). The oil wicks into and remains in the track-etch membrane pores because of its lower interfacial surface tension with the polycarbonate than the water has with polycarbonate. […] The diffusion coefficient of an analyte is dependent on the viscosity of the fluid it is diffusing through. Therefore, an important design element for the oil is to have a low viscosity (diffusion coefficient is inversely proportional to the viscosity of the oil [Walter, A.; Gutknecht, J. Permeability of Small Nonelectrolytes through Lipid Bilayer Membranes. J. Membr. Biol. 1986, 90 (3), 207-217. https://doi.org/10.1007/BF01870127]. Consider an informative example related to the materials used here. The optimal track-etch membranes for this work (see Table 1-below) have an 11 μm membrane thickness and 15.7% porosity, which is equivalent to the analyte having to diffuse through a uniform 70 μm of oil (11 μm/0.157). Now consider castor oil, with a viscosity about 730 times greater than that of water (see Table 2-below). An 11 μm thick castor oil membrane would then be equivalent to a 51,170 μm thick water diffusion distance (11 μum/0.157*730). Alternatively, using a low viscosity oil, such as 1-decanol, the 11 μm thick oil-membrane would have an equivalent thickness of only 945 μm diffusion distance through water (see Table 2).

| Structure (SMILES) | Viscosity at 25° C. [1] [cP] | Vapor pressure at 25° C. [2] [mmHg] | LogK (octanol over water) [3] | Solubility in water [4] [µg/mL] | Viscosity ([1]; Table 2) [cP] | Equivalent water thickness ([5]; pore size 0.1 μm, open area 3.1%, thickness 6 μm) | Equivalent water thickness ([5]; pore size 0.2 μm, open area 9.4%, thickness 10 μm) | Equivalent water thickness ([5]; pore size 0.4 μm, open area 12.6%, thickness 10 μm) | Equivalent water thickness ([5]; pore size 1.0 μm, open area 15.7%, thickness 11 μm) [μm] | Equivalent water thickness ([5]; pore size 3.0 μm, open area 14.1%, thickness 9 μm) [μm] | Log P ([3]; Table 2) |
| --- | --- | --- | --- | --- | --- | --- | --- | --- | --- | --- | --- |
| CCCCCCCCOCCCCCCCC [Dioctyl ether] | 0.224 | 0.005 | 6.9 |  |  |  |  |  |  |  |  |
| CCCCCCCC/C=C\CCCCCCCC(=O)O [Oleic acid] | 27.64 | 0.0000005 | 7.64 | 0.01 (≈ 0.0354 µM) |  |  |  |  |  |  |  |
| CCCCCCCCCCCCCC [Tetradecane] | 2.13 | 0.0369 | 8.19 | 0.00033 (≈ 0.00166 µM) |  |  |  |  |  |  |  |
| CCCCCCCCCCO [1-Decanol] | 12 | 0.00851 | 4.57 |  | 12 | 26,10 μm | 1,434 μm | 1,070 μm | 945 | 861 | 5 |
| CC1=C(C/C=C(\C)CCC[C@H](C)CCC[C@H](C)CCCC(C)C)C(=O)c2ccccc2C1=O [Vitamin K1] |  |  | 10.9 |  |  |  |  |  |  |  |  |
| CCCCCCCCCCCCS [Dodecane thiol] |  | 0.000015 | 6.1 | <0.2 |  |  |  |  |  |  |  |
